Assay results: BindingDB's records for doi:10.1016/j.ejmech.2017.02.004 (China Pharmaceutical University, 2017)

Experiments:
[1] = Substrate activity at NQO1 in human A549 cells assessed as NQO1-mediated two-electron reduction of compound by measuring cell growth inhibition treated for 24 hrs measured after 72 hrs by MTT assay
[2] = Substrate activity at CPR in human L02 cells assessed as CPR-mediated one-electron reduction of compound by measuring cell growth inhibition treated for 24 hrs measured after 72 hrs by MTT assay
[3] = Substrate activity at NQO1 in human HepG2 cells assessed as NQO1-mediated two-electron reduction of compound by measuring cell growth inhibition treated for 24 hrs measured after 72 hrs by MTT assay
[4] = Substrate activity at NQO1 in human HCT116 cells assessed as NQO1-mediated two-electron reduction of compound by measuring cell growth inhibition treated for 24 hrs measured after 72 hrs by MTT assay
[5] = Substrate activity at NQO1 in human H522 cells assessed as NQO1-mediated two-electron reduction of compound by measuring cell growth inhibition treated for 24 hrs measured after 72 hrs by MTT assay
[6] = Substrate activity at NQO1 in human H1299 cells assessed as NQO1-mediated two-electron reduction of compound by measuring cell growth inhibition treated for 24 hrs measured after 72 hrs by MTT assay
[7] = Substrate activity at NQO1 in human H1650 cells assessed as NQO1-mediated two-electron reduction of compound by measuring cell growth inhibition treated for 24 hrs measured after 72 hrs by MTT assay
[8] = Substrate activity at NQO1 in human MCF7 cells assessed as NQO1-mediated two-electron reduction of compound by measuring cell growth inhibition treated for 24 hrs measured after 72 hrs by MTT assay

Row | SMILES | IC50 [1] [µM] | IC50 [2] [µM] | further results
1 | CCc1coc2c1C(=O)C(=O)c1cc(C)ccc1-2 | 3.1 | 25 | 
2 | Cc1coc2c1C(=O)C(=O)c1c(C)ccc(C)c1-2 | 2.9 | 17 | 
3 | Cc1ccc2c(c1)-c1occ(C)c1C(=O)C2=O | 4.1 | 6.3 | 
4 | Cc1ccc2c(c1)C(=O)C(=O)c1c(C)coc1-2 | 8.5 | 22 | 
5 | Cc1cc2c(cc1C)-c1occc1C(=O)C2=O | 3.1 |  | 
6 | Cc1cc2c(cc1C)-c1occ(C)c1C(=O)C2=O | 3.3 |  | IC50 [3]: 2500 nM; IC50 [4]: 4.4 µM; IC50 [5]: 4.8 µM; IC50 [6]: 4.9 µM; IC50 [7]: 9.3 µM; IC50 [8]: 2400 nM

Continued, in another order:

Row | IC50 [1] [µM] | IC50 [2] [µM] | SMILES | further results
7 |  | 19 | COc1cccc2c1C1=C(C(=O)C2=O)C(C)(C)C(C)O1 (centres undefined) | 
8 | 5.8 |  | COc1ccc2c(c1)C1=C(C(=O)C2=O)C(C)(C)C(C)O1 (centres undefined) | 
9 |  | 30 | COc1ccc2c(c1)C(=O)C(=O)C1=C2OC(C)C1(C)C (centres undefined) | 
